US7468421B2, “Depilatories and agents for external use” (Kao Corporation, priority 1999, dated 2008)
Where no end group is shown, it is not given here.

Columns and labels:
[1] = tested on: growth-phase hair follicles; test: Growth-phase hair follicle inhibitory effects of endothelin, count of hair shafts; format: in vivo, guinea pig; conditions: 1 μg intracutaneously, 50 μL/site, fifth day after the administration
Procedure: Solutions (1 μg, each) of endothelin-1, endothelin-2 and endotherin-3 in aliquots of phosphate buffer solution (PBS), which contained 0.1% of bovine serum albumin (BSA), were intracutaneously administered (at 50 μL/site) to the dorsal parts of guinea pigs, respectively, from which hair had been cut off by a hair clipper. Three days after the administration, hair was again cut off by a hair clipper from the administered sites. Two days after the cutting, the numbers of hair shafts grown per unit area at the administered sites were counted.

[2] = tested on: endothelin-induced depilation spot; test: Concurrent administration of endothelin inhibitor on the endothelin-induced formation of depilation spot; format: in vivo, guinea pig; conditions: 10 days after the administration; endothelin-1 0.3 μg, PD142893 10 μg, intracutaneous
Procedure: As described in Example 1, endothelin (0.3 μg) was intracutaneously administered to the dorsal part of each guinea pig, and PD142893 (10 μg) as an endothelin inhibitor was also administered concurrently.
The size of a depilation spot formed 10 days after the administration was determined in terms of a product of its long diameter and short diameter.

C3H/HeNCrj mouse = test: Hair growth test in mice; format: in vivo; conditions: 0.5 mg in 2.5 mL PEG 400/PEG 3350 (95/5), 25 μL/application once a day over 2 weeks, applied to depilated dorsal skin
Procedure: Endothelin-1 (0.5 mg) was dissolved in a mixed solution (2.5 mL) of polyethylene glycol 400 (average molecular weight: 400) and polyethylene glycol 3350 (average molecular weight: 3,350) (mixing ratio: 95/5) to prepare a hair growth inhibitor. Dorsal hair of each 8-week old C3H/HeNCrj mouse was removed with a depilatory cream (over an area of 2×4 cm^2), and the hair growth inhibitor was applied to the depilated site once a day at a dose of 25 μL/application over 2 weeks. A group in which only the solvent was similarly applied was employed as a control group. To observe regrowth of hair, the above-described depilated site on day 14 after the depilation was photographed at a predetermined fixed magnification, and the percentage of a regrown hair area (regrown hair area/depilated area×100) was determined using an image analyzer.

[3] = tested on: dorsal part of a guinea pig; test: Depilation inducing effects of endothelin, intracutaneous administration; format: in vivo; conditions: 0.3 μg intracutaneously, 50 μL/site, 10 days after the administration
Procedure: (§1) A solution of endothelin-1 (0.3 μg) in phosphate buffer solution (PBS), which contained 0.1% of bovine serum albumin (BSA), was intracutaneously administered (at 50 μL/site) to the dorsal part of a guinea pig.

[4] = tested on: hair follicle organs in growth phase from a human scalp tissue; test: Growth inhibitory effects on organ-cultured hair follicles; format: cell-based
Procedure: From a human scalp tissue, hair follicle organs in growth phase were surgically isolated under a stereomicroscope. Following a conventional procedure [Philpott M. P., et al., J. Cell Sci., 97, 463-471 (1990)], the isolated hair follicles were subjected to organ culture. Described specifically, endothelin-1 was added to William's E medium which contained L-glutamine (2 mM), hydrocortisone (10 ng/mL), insulin (10 μg/mL), sodium selenite (10 ng/mL) and transferrin (10 μg/mL).

[5] = tested on: growth-phase hair follicle; test: Structural changes of hair follicle structure by the administration of endothelin, hematoxylin-eosin staining; format: in vivo, guinea pig; conditions: 0.3 μg intracutaneously
Procedure: as §1, with “1.1%” for “0.1%”, “pig. After that, samples were collected day after day from the administered dorsal skin, and tissue samples were prepared by hematoxylin-eosin staining.” for “pig.”

With “endothelin-3 (CTCFTYKDKECVYYCHLDIIW; ends and bridges not checked; cysteine pairing not given here; UniProt P14138 97-117, looked up) [endotherin-3, peptide composed of 21 amino acid residues; isoform of endothelin]” the “number of hair shafts grown per unit area at the administered site” value [1] was “significant (p<0.01) decrease in the number of hair shafts”.
With `CC[C@H](C)[C@H](NC(=O)[C@H](CC(=O)O)NC(=O)[C@H](CC(C)C)NC(=O)[C@H](Cc1c[nH]cn1)NC(=O)[C@@H]1CSSC[C@H](N)C(=O)N[C@@H](CO)C(=O)N[C@H]2CSSC[C@H](NC(=O)[C@H](CCC(=O)O)NC(=O)[C@H](CCCCN)NC(=O)[C@H](CC(=O)O)NC(=O)[C@H](CCSC)NC(=O)[C@H](CC(C)C)NC(=O)[C@H](CO)NC(=O)[C@H](CO)NC2=O)C(=O)N[C@@H](C(C)C)C(=O)N[C@@H](Cc2ccc(O)cc2)C(=O)N[C@@H](Cc2ccccc2)C(=O)N1)C(=O)N[C@H](C(=O)N[C@@H](Cc1c[nH]c2ccccc12)C(=O)O)[C@@H](C)CC` [Endothelin-1, endothelin-1] the “Product of long diameter and short diameter of depilation spot (mean ± S.D., N = 6)” value [2] was 81.47 ± 6.53 mm^2, the “number of hair shafts grown per unit area at the administered site” value [1] was “significant (p<0.01) decrease in the number of hair shafts” and the “Percentage of regrown hair area on day 14 after depilation” value (C3H/HeNCrj mouse) was 2.22%. The “observation at the administered site (depilation)” value [3] was “hair shaft falling-off and formation of a marked depilation spot”, the “percent regression of growth-phase hair follicles” value (shortened to “percent regression”) ([4]; 10 ng/mL added endothelin, Day 1 of incubation) was 0.0% and the “percent regression” value ([4]; 10 ng/mL added endothelin, Day 2 of incubation) was 0.0%. The “percent regression” value ([4]; 10 ng/mL added endothelin, Day 4 of incubation) was 17.6%, the “percent regression” value ([4]; 10 ng/mL added endothelin, Day 6 of incubation) was 35.3% and the “percent regression” value ([4]; 100 ng/mL added endothelin, Day 1 of incubation) was 0.0%. For the same compound, the “percent regression” value ([4]; 100 ng/mL added endothelin, Day 2 of incubation) was 0.0%, the “percent regression” value ([4]; 100 ng/mL added endothelin, Day 4 of incubation) was 23.5% and the “percent regression” value ([4]; 100 ng/mL added endothelin, Day 6 of incubation) was 41.2%. For the same compound, the “grown hair follicle lengths compared with control group” value ([4]; day 4 of incubation and the subsequent days (FIG. 3)) was “significant hair growth inhibitory effects”, the “structural change of incubated hair follicles” value ([4]; during the incubation period (FIG. 4)) was “structural change of the endothelin-treated, growth-phase hair follicles into those similar to resting-phase hair follicles” and the “histological image of hair follicle” value ([5]; 1st day after the administration) was “regressed image of a growth-phase hair follicle”. The “histological image of hair follicle” value ([5]; 3rd day after the administration) was “image of a follicular tissue in transition phase”.
In the case of “endothelin-2 (CSCSSWLDKECVYFCHLDIIW; ends and bridges not checked; cysteine pairing not given here; UniProt P20800 49-69, looked up) [peptide composed of 21 amino acid residues; isoform of endothelin]”, the “number of hair shafts grown per unit area at the administered site” value [1] is reported as “significant (p<0.01) decrease in the number of hair shafts”.
